Source: ChEMBL document CHEMBL3784959, “Cyclophosphamide pharmacokinetics and dose requirements in patients with renal insufficiency” (Kidney Int, 2002)

Columns and labels:
clinical [1] = settings: human, in vivo, iv, 0.83 g/m'2
Description: Volume of distribution at steady state in patient ( 12 patients) with normal renal function at 0.83 +/- 0.05 g/m'2 administered as pulse therapy with 1 hr infusion by HPLC analysis

clinical [2] = settings: human, in vivo, iv, 1.2 g/m'2
Description: Renal clearance in patient (6 patients) with hemodialysis-dependent end-stage renal disease at 1.2 +/- 0.4 g/m'2 administered as pulse therapy with 1 hr infusion followed by hemodialysis for 3 hrs started 7 hrs post dose measured during hemodialysis treatment by HPLC analysis

[3] = Volume of distribution at steady state in patient (6 patients) with hemodialysis-dependent end-stage renal disease at 1.2 +/- 0.4 g/m'2 administered as pulse therapy with 1 hr infusion followed by hemodialysis for 3 hrs started 7 hrs post dose measured during hemodialysis treatment by HPLC analysis; settings: human, in vivo, iv, 1.2 g/m'2
[4] = Drug excretion in urine of patient (6 patients) with severe renal insufficiency at 1.1 +/- 0.2 g/m'2 administered as pulse therapy with 1 hr infusion by HPLC analysis; settings: human, iv, 1.1 g/m'2
clinical [5] = settings: human, in vivo, iv, 1.4 g/m'2
Description: Elimination half life in patient (6 patients) with moderate renal insufficiency at 1.4 +/- 0.1 g/m'2 administered as pulse therapy with 1 hr infusion by HPLC analysis

clinical [6] = settings: human, in vivo, iv, 1.2 g/m'2; remark: listed apart in the source
Description: Elimination half life in patient (6 patients) with hemodialysis-dependent end-stage renal disease at 1.2 +/- 0.4 g/m'2 administered as pulse therapy with 1 hr infusion followed by hemodialysis for 3 hrs started 7 hrs post dose measured during hemodialysis treatment by HPLC analysis

clinical [7] = settings: human, in vivo, iv, 0.83 g/m'2; remark: listed apart in the source
Description: Renal clearance in patient ( 12 patients) with normal renal function at 0.83 +/- 0.05 g/m'2 administered as pulse therapy with 1 hr infusion by HPLC analysis

clinical [8] = settings: human, in vivo, iv, 1.4 g/m'2; remark: listed apart in the source
Description: Renal clearance in patient (6 patients) with moderate renal insufficiency at 1.4 +/- 0.1 g/m'2 administered as pulse therapy with 1 hr infusion by HPLC analysis

clinical [9] = settings: human, in vivo, iv, 1.4 g/m'2; remark: listed apart in the source
Description: Systemic clearance in patient (6 patients) with moderate renal insufficiency at 1.4 +/- 0.1 g/m'2 administered as pulse therapy with 1 hr infusion by HPLC analysis

[10] = Drug excretion in dialysate of patient (4 patients) with chronic renal failure at 100 mg, iv administered over 10 mins followed by hemodialysis for 4 hrs measured during hemodialysis treatment by GLC analysis; settings: human
[11] = Drug excretion in urine of patient ( 12 patients) with normal renal function at 0.83 +/- 0.05 g/m'2 administered as pulse therapy with 1 hr infusion by HPLC analysis; settings: human, iv, 0.83 g/m'2
clinical [12] = settings: human, in vivo, iv, 0.83 g/m'2; remark: listed apart in the source
Description: Elimination half life in patient ( 12 patients) with normal renal function at 0.83 +/- 0.05 g/m'2 administered as pulse therapy with 1 hr infusion by HPLC analysis

clinical [13] = settings: human, in vivo, iv, 1.1 g/m'2
Description: Elimination half life in patient (6 patients) with severe renal insufficiency at 1.1 +/- 0.2 g/m'2 administered as pulse therapy with 1 hr infusion by HPLC analysis

[14] = Drug excretion in urine of patient (6 patients) with hemodialysis-dependent end-stage renal disease at 1.2 +/- 0.4 g/m'2 administered as pulse therapy with 1 hr infusion followed by hemodialysis for 3 hrs started 7 hrs post dose measured during hemodialysis treatment by HPLC analysis; settings: human, iv, 1.2 g/m'2
[15] = Volume of distribution at steady state in patient (6 patients) with severe renal insufficiency at 1.1 +/- 0.2 g/m'2 administered as pulse therapy with 1 hr infusion by HPLC analysis; settings: human, in vivo, iv, 1.1 g/m'2
clinical [16] = settings: human, in vivo, iv, 1.2 g/m'2; remark: listed apart in the source
Description: Systemic clearance in patient (6 patients) with hemodialysis-dependent end-stage renal disease at 1.2 +/- 0.4 g/m'2 administered as pulse therapy with 1 hr infusion followed by hemodialysis for 3 hrs started 7 hrs post dose measured during hemodialysis treatment by HPLC analysis

clinical [17] = settings: human, in vivo, iv, 1.1 g/m'2; remark: listed apart in the source
Description: Renal clearance in patient (6 patients) with severe renal insufficiency at 1.1 +/- 0.2 g/m'2 administered as pulse therapy with 1 hr infusion by HPLC analysis

clinical [18] = settings: human, in vivo, iv, 1.1 g/m'2; remark: listed apart in the source
Description: Systemic clearance in patient (6 patients) with severe renal insufficiency at 1.1 +/- 0.2 g/m'2 administered as pulse therapy with 1 hr infusion by HPLC analysis

clinical [19] = settings: human, in vivo, iv, 0.83 g/m'2; remark: listed apart in the source
Description: Systemic clearance in patient ( 12 patients) with normal renal function at 0.83 +/- 0.05 g/m'2 administered as pulse therapy with 1 hr infusion by HPLC analysis

[20] = Drug excretion in urine of patient (6 patients) with moderate renal insufficiency at 1.4 +/- 0.1 g/m'2 administered as pulse therapy with 1 hr infusion by HPLC analysis; settings: human, iv, 1.4 g/m'2
[21] = Drug recovery in normal human urine
[22] = Volume of distribution at steady state in patient (6 patients) with moderate renal insufficiency at 1.4 +/- 0.1 g/m'2 administered as pulse therapy with 1 hr infusion by HPLC analysis; settings: human, in vivo, iv, 1.4 g/m'2

Structure (SMILES): O=P1(N(CCCl)CCCl)NCCCO1 (configuration not stated) [CYCLOPHOSPHAMIDE ANHYDROUS]
- Vd at 1 h (clinical [1]): 0.49 L/kg
- CL renal at 7 h (clinical [2]): 2.1 mL/min
- Vd [3]: 0.49 L/kg
- dose excreted at 1 h [4]: 5.6%
- half-life at 1 h (clinical [5]): 6.4 h
- half-life (clinical [6]): 7.3 h
- CL renal at 1 h (clinical [7]): 14.9 mL/min
- CL renal at 1 h (clinical [8]): 3.4 mL/min
- clearance at 1 h (clinical [9]): 57 mL/min
- dose excreted at 4 h [10]: 37%
- dose excreted at 1 h [11]: 19.1%
- half-life at 1 h (clinical [12]): 4.8 h
- half-life at 1 h (clinical [13]): 7.3 h
- dose excreted [14]: 3%
- Vd at 1 h [15]: 0.36 L/kg
- clearance (clinical [16]): 64 mL/min
- CL renal at 1 h (clinical [17]): 2.4 mL/min
- clearance at 1 h (clinical [18]): 47 mL/min
- clearance at 1 h (clinical [19]): 79 mL/min
- dose excreted at 1 h [20]: 5.8%
- dose excreted [21]: ≤ 25%
- Vd at 1 h [22]: 0.36 L/kg
